system: human cervical tumor cell line HeLa (ATCC CCL-2); assay: SAC-Formation - Paclitaxel-Induced Assay; assay type: cell-based; settings: Homo sapiens, HeLa, 24 h, HeLa cells, paclitaxel 0.05 μM, test range 0.005 μM-20 μM, read-out: IC50 [mol/l] SAC-Formation - Paclitaxel-Induced Assay
How it was run: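 Read-out is high-content imaging of anti-phospho-H3 Ser10 (mitosis) and Hoechst 33342 (DNA, cell number), with decreased mitotic fraction marking checkpoint breakthrough. Compounds (0.005–20 μM) and 0.05 μM paclitaxel co-added to overnight-plated HeLa for 24 h at 37° C; four-parameter Hill fit.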

IC50 [nM] | Structure (SMILES)
21 | Cc1nsc(Nc2cnc(C(F)(F)F)cn2)c1C(=O)Nc1ccc(OCC2CCN(CC(F)F)CC2)nc1 [Example 345, N-(6-{[1-(2,2-difluoroethyl)piperidin-4-yl]methoxy}pyridin-3-yl)-3-methyl-5-{[5-(trifluoromethyl)pyrazin-2-yl]amino}-1,2-thiazole-4-carboxamide]
32 | Cc1nsc(Nc2cnc(C(F)(F)F)cn2)c1C(=O)Nc1ccc(OCC2CCN(CC(F)(F)F)CC2)nc1 [Example 346, 3-methyl-N-(6-{[1-(2,2,2-trifluoroethyl)piperidin-4-yl]methoxy}pyridin-3-yl)-5-{[5-(trifluoromethyl)pyrazin-2-yl]amino}-1,2-thiazole-4-carboxamide]
64 | Cc1nsc(Nc2cnc(C(F)(F)F)cn2)c1C(=O)Nc1ccc(OCC2CCN(CCC(F)(F)F)CC2)nc1 [Example 347, 3-methyl-5-{[5-(trifluoromethyl)pyrazin-2-yl]amino}-N-(6-{[1-(3,3,3-trifluoropropyl)piperidin-4-yl]methoxy}pyridin-3-yl)-1,2-thiazole-4-carboxamide]
250 | Cc1nsc(Nc2cnc(C(F)(F)F)cn2)c1C(=O)Nc1ccc(CCC2CCN(CC(F)F)CC2)nc1 [Example 356, N-(6-{2-[1-(2,2-difluoroethyl)piperidin-4-yl]ethyl}pyridin-3-yl)-3-methyl-5-{[5-(trifluoromethyl)pyrazin-2-yl]amino}-1,2-thiazole-4-carboxamide]
99 | Cc1nsc(Nc2cnc(C(F)(F)F)cn2)c1C(=O)Nc1ccc(C2CCN(CC(F)F)CC2)nc1 [Example 357, N-{6-[1-(2,2-difluoroethyl)piperidin-4 yl]pyridin-3-yl}-3-methyl-5-{[5-(trifluoromethyl)pyrazin-2-yl]amino}-1,2-thiazole-4-carboxamide]
68 | Cc1nsc(Nc2cnc(C(F)(F)F)cn2)c1C(=O)Nc1ccc(C2CCN(CC(F)(F)F)CC2)nc1 [Example 358, 3-methyl-N-{6-[1-(2,2,2-trifluoroethyl)piperidin-4-yl]pyridin-3-yl}-5-{[5-(trifluoromethyl)pyrazin-2-yl]amino}-1,2-thiazole-4-carboxamide]
110 | Cc1nsc(Nc2cnc(C(F)(F)F)cn2)c1C(=O)Nc1ccc(N2CCN(CC(F)F)CC2)nc1 [Example 359, N-{6-[4-(2,2-difluoroethyl)piperazin-1-yl]pyridin-3-yl}-3-methyl-5-{[5-(trifluoromethyl)pyrazin-2-yl]amino}-1,2-thiazole-4-carboxamide]
75 | Cc1nsc(Nc2cnc(C(F)(F)F)cn2)c1C(=O)Nc1ccc(N2CCN(CC(F)(F)F)CC2)nc1 [Example 360, 3-methyl-N-{6-[4-(2,2,2-trifluoroethyl)piperazin-1-yl]pyridin-3-yl}-5-{[5-(trifluoromethyl)pyrazin-2-yl]amino}-1,2-thiazole-4-carboxamide]
59 | Cc1nsc(Nc2cnc(C(F)(F)F)cn2)c1C(=O)Nc1ccc(O[C@H]2CCN(CC(F)F)C[C@@H]2F)nc1 [Example 362]
150 | CCN1CC[C@H](Oc2ccc(NC(=O)c3c(C)nsc3Nc3cnc(C(F)(F)F)cn3)cn2)[C@@H](F)C1 [Example 365, N-(6-{[(3S,4S)-1-ethyl-3-fluoropiperidin-4-yl]oxy}pyridin-3-yl)-3-methyl-5-{[5-(trifluoromethyl)pyrazin-2-yl]amino}-1,2-thiazole-4-carboxamide]
98 | Cc1nsc(Nc2cnc(C(F)(F)F)cn2)c1C(=O)Nc1ccc(O[C@@H]2CCN(CC(F)F)C[C@H]2F)nc1 [Example 366, N-(6-{[(3R,4R)-1-(2,2-difluoroethyl)-3-fluoropiperidin-4-yl]oxy}pyridin-3-yl)-3-methyl-5-{[5-(trifluoromethyl)pyrazin-2-yl]amino}-1,2-thiazole-4-carboxamide]
150 | CCN1CC[C@@H](Oc2ccc(NC(=O)c3c(C)nsc3Nc3cnc(C(F)(F)F)cn3)cn2)[C@H](F)C1 [Example 369, N-(6-{[(3R,4R)-1-ethyl-3-fluoropiperidin-4-yl]oxy}pyridin-3-yl)-3-methyl-5-{[5-(trifluoromethyl)pyrazin-2-yl]amino}-1,2-thiazole-4-carboxamide]

Continued, compound first:

Structure (SMILES) | IC50 [nM]
Cc1nsc(Nc2cnc(C(F)(F)F)cn2)c1C(=O)Nc1ccc(OCCN(C)CCF)nc1 [Example 348, N-(6-{2-[(2-fluoroethyl)(methyl)amino]ethoxy}pyridin-3-yl)-3-methyl-5-{[5-(trifluoromethyl)pyrazin-2-yl]amino}-1,2-thiazole-4-carboxamide] | 520
Cc1nsc(Nc2cnc(C(F)(F)F)cn2)c1C(=O)Nc1ccc(OCCN(C)CC(F)F)nc1 [Example 349, N-(6-{2-[(2,2-difluoroethyl)(methyl)amino]ethoxy}pyridin-3-yl)-3-methyl-5-{[5-(trifluoromethyl)pyrazin-2-yl]amino}-1,2-thiazole-4-carboxamide] | 50
Cc1nsc(Nc2cnc(C(F)(F)F)cn2)c1C(=O)Nc1ccc(OCCN(C)CC(F)(F)F)nc1 [Example 350, 3-methyl-N-(6-{2-[methyl(2,2,2-trifluoroethyl)amino]ethoxy}pyridin-3-yl)-5-{[5-(trifluoromethyl)pyrazin-2-yl]amino}-1,2-thiazole-4-carboxamide] | 57
Cc1nsc(Nc2cnc(C(F)(F)F)cn2)c1C(=O)Nc1ccc(OCCN(C)CCC(F)(F)F)nc1 [Example 351, 3-methyl-N-(6-{2-[methyl(3,3,3-trifluoropropyl)amino]ethoxy}pyridin-3-yl)-5-{[5-(trifluoromethyl)pyrazin-2-yl]amino}-1,2-thiazole-4-carboxamide] | 210
Cc1nsc(Nc2cnc(C(F)(F)F)cn2)c1C(=O)Nc1ccc(OCCCN(C)CCF)nc1 [Example 352, N-(6-{3-[(2-fluoroethyl)(methyl)amino]propoxy}pyridin-3-yl)-3-methyl-5-{[5-(trifluoromethyl)pyrazin-2-yl]amino}-1,2-thiazole-4-carboxamide] | 520
Cc1nsc(Nc2cnc(C(F)(F)F)cn2)c1C(=O)Nc1ccc(OCCCN(C)CC(F)F)nc1 [Example 353, N-(6-{3-[(2,2-difluoroethyl)(methyl)amino]propoxy}pyridin-3-yl)-3-methyl-5-{[5-(trifluoromethyl)pyrazin-2-yl]amino}-1,2-thiazole-4-carboxamide] | 150
Cc1nsc(Nc2cnc(C(F)(F)F)cn2)c1C(=O)Nc1ccc(OCCCN(C)CC(F)(F)F)nc1 [Example 354, 3-methyl-N-(6-{3-[methyl(2,2,2-trifluoroethyl)amino]propoxy}pyridin-3-yl)-5-{[5-(trifluoromethyl)pyrazin-2-yl]amino}-1,2-thiazole-4-carboxamide] | 120
Cc1nsc(Nc2cnc(C(F)(F)F)cn2)c1C(=O)Nc1ccc(OCCCN(C)CCC(F)(F)F)nc1 [Example 355, 3-methyl-N-(6-{3-[methyl(3,3,3-trifluoropropyl)amino]propoxy}pyridin-3-yl)-5-{[5-(trifluoromethyl)pyrazin-2-yl]amino}-1,2-thiazole-4-carboxamide] | 190
Cc1nsc(Nc2cnc(C(F)(F)F)cn2)c1C(=O)Nc1ccc(N2CCN(CCC(F)(F)F)CC2)nc1 [Example 361, 3-methyl-5-{[5-(trifluoromethyl)pyrazin-2-yl]amino}-N-{6-[4-(3,3,3-trifluoropropyl)piperazin-1-yl]pyridin-3-yl}-1,2-thiazole-4-carboxamide] | 120
Cc1nsc(Nc2cnc(C(F)(F)F)cn2)c1C(=O)Nc1ccc(O[C@H]2CCN(CC(F)(F)F)C[C@@H]2F)nc1 [Example 363, N-(6-{[(3S,4S)-3-fluoro-1-(2,2,2-trifluoroethyl)piperidin-4-yl]oxy}pyridin-3-yl)-3-methyl-5-{[5-(trifluoromethyl)pyrazin-2-yl]amino}-1,2-thiazole-4-carboxamide] | 47
Cc1nsc(Nc2cnc(C(F)(F)F)cn2)c1C(=O)Nc1ccc(O[C@H]2CCN(CCC(F)(F)F)C[C@@H]2F)nc1 [Example 364, N-(6-{[(3S,4S)-3-fluoro-1-(3,3,3-trifluoropropyl)piperidin-4-yl]oxy}pyridin-3-yl)-3-methyl-5-{[5-(trifluoromethyl)pyrazin-2-yl]amino}-1,2-thiazole-4-carboxamide] | 40
Cc1nsc(Nc2cnc(C(F)(F)F)cn2)c1C(=O)Nc1ccc(O[C@@H]2CCN(CC(F)(F)F)C[C@H]2F)nc1 [Example 367, N-(6-{[(3R,4R)-3-fluoro-1-(2,2,2-trifluoroethyl)piperidin-4-yl]oxy}pyridin-3-yl)-3-methyl-5-{[5-(trifluoromethyl)pyrazin-2-yl]amino}-1,2-thiazole-4-carboxamide] | 37
Cc1nsc(Nc2cnc(C(F)(F)F)cn2)c1C(=O)Nc1ccc(O[C@@H]2CCN(CCC(F)(F)F)C[C@H]2F)nc1 [Example 368, N-(6-{[(3R,4R)-3-fluoro-1-(3,3,3-trifluoropropyl)piperidin-4-yl]oxy}pyridin-3-yl)-3-methyl-5-{[5-(trifluoromethyl)pyrazin-2-yl]amino}-1,2-thiazole-4-carboxamide] | 64
CCCN1CC[C@H](Oc2ccc(NC(=O)c3c(C)nsc3Nc3cnc(C(F)(F)F)cn3)cn2)[C@@H](F)C1 [Example 370, N-(6-{[(3S,4S)-3-fluoro-1-propylpiperidin-4-yl]oxy}pyridin-3-yl)-3-methyl-5-{[5-(trifluoromethyl)pyrazin-2-yl]amino}-1,2-thiazole-4-carboxamide] | 31
CCCN1CC[C@@H](Oc2ccc(NC(=O)c3c(C)nsc3Nc3cnc(C(F)(F)F)cn3)cn2)[C@H](F)C1 [Example 371, N-(6-{[(3R,4R)-3-fluoro-1-propylpiperidin-4-yl]oxy}pyridin-3-yl)-3-methyl-5-{[5-(trifluoromethyl)pyrazin-2-yl]amino}-1,2-thiazole-4-carboxamide] | 51

— patent US20170334899A1, “AMINO-SUBSTITUTED ISOTHIAZOLES” (Bayer Pharma Aktiengesellschaft, priority 2014, published 2017)
